From EP0048613B1, “4-0-Substituted -2-deoxystreptamine aminoglycoside derivatives, their preparation and formulations containing them” (ELI LILLY AND COMPANY, priority 1980, dated 1982)
In brackets after ≈: the same amount, converted by molar mass. Like-named read-outs stand apart in the source and are kept apart here.

Key:
[1] = test system: Bordetella bronchiseptica 16; experiment: MIC, standard agar dilution test; assay type: cell-based; details: read-out: Minimum inhibitory concentration
Source text: (§1) The antibacterial activity of the deprotected compounds of this invention is illustrated by the following in vitro and in vivo test data obtained with representative compounds. In Table I, the minimum inhibitory concentration (MIC) for representative compounds against a wide range of gram-positive and gram-negative bacteria is presented. The MIC values were obtained by the standard agar dilution test.

[2] = test system: Citrobacter freundii CF17; experiment: MIC, standard agar dilution test; assay type: cell-based; details: read-out: Minimum inhibitory concentration
Source text: as §1

[3] = test system: Enterobacter aerogenes C32; experiment: MIC, standard agar dilution test; assay type: cell-based; details: Klebsiella aerogenes, read-out: Minimum inhibitory concentration
Source text: as §1

[4] = test system: Enterobacter aerogenes EB17; experiment: MIC, standard agar dilution test; assay type: cell-based; details: Klebsiella aerogenes, read-out: Minimum inhibitory concentration
Source text: as §1

[5] = test system: Enterobacter aerogenes X68; experiment: MIC, standard agar dilution test; assay type: cell-based; details: Klebsiella aerogenes, read-out: Minimum inhibitory concentration
Source text: as §1

[6] = test system: Enterobacter cloacae 265A; experiment: MIC, standard agar dilution test; assay type: cell-based; details: read-out: Minimum inhibitory concentration
Source text: as §1

Enterobacter cloacae EB5 = experiment: MIC, standard agar dilution test; assay type: cell-based; details: read-out: Minimum inhibitory concentration
Source text: as §1

Escherichia coli EC14 = experiment: MIC, standard agar dilution test; assay type: cell-based; details: read-out: Minimum inhibitory concentration
Source text: as §1

Escherichia coli N10 = experiment: MIC, standard agar dilution test; assay type: cell-based; details: read-out: Minimum inhibitory concentration
Source text: as §1

Escherichia coli TEM = experiment: MIC, standard agar dilution test; assay type: cell-based; details: Escherichia coli, read-out: Minimum inhibitory concentration
Source text: as §1

Hemophilus influenzae 76 = experiment: MIC, standard agar dilution test; assay type: cell-based; details: Haemophilus influenzae, read-out: Minimum inhibitory concentration
Source text: as §1

[7] = test system: Hemophilus influenzae C.L.; experiment: MIC, standard agar dilution test; assay type: cell-based; details: Haemophilus influenzae, read-out: Minimum inhibitory concentration
Source text: as §1

[8] = test system: Klebsiella pneumoniae KAE; experiment: MIC, standard agar dilution test; assay type: cell-based; details: read-out: Minimum inhibitory concentration
Source text: as §1

[9] = test system: Klebsiella pneumoniae X26; experiment: MIC, standard agar dilution test; assay type: cell-based; details: read-out: Minimum inhibitory concentration
Source text: as §1

Proteus inconstans PR33 = experiment: MIC, standard agar dilution test; assay type: cell-based; details: Providencia alcalifaciens, read-out: Minimum inhibitory concentration
Source text: as §1

Proteus morganii PR15 = experiment: MIC, standard agar dilution test; assay type: cell-based; details: Morganella morganii, read-out: Minimum inhibitory concentration
Source text: as §1

Proteus rettgeri C24 = experiment: MIC, standard agar dilution test; assay type: cell-based; details: Providencia rettgeri, read-out: Minimum inhibitory concentration
Source text: as §1

Proteus rettgeri PR7 = experiment: MIC, standard agar dilution test; assay type: cell-based; details: Providencia rettgeri, read-out: Minimum inhibitory concentration
Source text: as §1

[10] = test system: Pseudomonas aeruginosa Ps18; experiment: MIC, standard agar dilution test; assay type: cell-based; details: read-out: Minimum inhibitory concentration
Source text: as §1

[11] = test system: Pseudomonas aeruginosa X239; experiment: MIC, standard agar dilution test; assay type: cell-based; details: read-out: Minimum inhibitory concentration
Source text: as §1

[12] = test system: Pseudomonas aeruginosa X528; experiment: MIC, standard agar dilution test; assay type: cell-based; details: read-out: Minimum inhibitory concentration
Source text: as §1

[13] = test system: Salmonella heidelberg X514; experiment: MIC, standard agar dilution test; assay type: cell-based; details: Salmonella enterica, read-out: Minimum inhibitory concentration
Source text: as §1

[14] = test system: Salmonella typhimurium 1335; experiment: MIC, standard agar dilution test; assay type: cell-based; details: Salmonella enterica, read-out: Minimum inhibitory concentration
Source text: as §1

Serratia marcescens SE3 = experiment: MIC, standard agar dilution test; assay type: cell-based; details: read-out: Minimum inhibitory concentration
Source text: as §1

Serratia marcescens X99 = experiment: MIC, standard agar dilution test; assay type: cell-based; details: read-out: Minimum inhibitory concentration
Source text: as §1

Shigella sonnei N9 = experiment: MIC, standard agar dilution test; assay type: cell-based; details: read-out: Minimum inhibitory concentration
Source text: as §1

[15] = test system: Staphylococcus aureus S13E; experiment: MIC, standard agar dilution test; assay type: cell-based; details: Staphylococcus aureus, S13E, read-out: Minimum inhibitory concentration
Source text: as §1

[16] = test system: Staphylococcus aureus V41; experiment: MIC, standard agar dilution test; assay type: cell-based; details: read-out: Minimum inhibitory concentration
Source text: as §1

[17] = test system: Staphylococcus aureus X1.1; experiment: MIC, standard agar dilution test; assay type: cell-based; details: read-out: Minimum inhibitory concentration
Source text: as §1

[18] = test system: Staphylococcus aureus X400; experiment: MIC, standard agar dilution test; assay type: cell-based; details: read-out: Minimum inhibitory concentration
Source text: as §1

[19] = test system: Staphylococcus epidermidis EPI1; experiment: MIC, standard agar dilution test; assay type: cell-based; details: Staphylococcus epidermidis, EPI1; read-out: Minimum inhibitory concentration
Source text: as §1

[20] = test system: Staphylococcus epidermidis EPI2; experiment: MIC, standard agar dilution test; assay type: cell-based; details: read-out: Minimum inhibitory concentration
Source text: as §1

[21] = test system: Streptococcus group D 9960; experiment: MIC, standard agar dilution test; assay type: cell-based; details: D9960, read-out: Minimum inhibitory concentration
Source text: as §1

[22] = test system: Streptococcus group D X66; experiment: MIC, standard agar dilution test; assay type: cell-based; details: DX66, read-out: Minimum inhibitory concentration
Source text: as §1

[23] = test system: Streptococcus pneumoniae Park I; experiment: MIC, standard agar dilution test; assay type: cell-based; details: Streptococcus pneumoniae; read-out: Minimum inhibitory concentration
Source text: as §1

[24] = test system: Streptococcus pyogenes C203; experiment: MIC, standard agar dilution test; assay type: cell-based; details: read-out: Minimum inhibitory concentration
Source text: as §1

[25] = test system: Staphylococcus aureus 3055; experiment: Subcutaneous therapy of experimental bacterial infection in mice; assay type: in vivo; details: Staphylococcus aureus, 3055, sc, subcutaneous doses at 1 and 5 hours post infection, read-out: Effective dose (ED50)
Method: Table II illustrates the effective dose (ED50, effective dose to protect 50 percent of the test animals) for representative compounds of this invention against an experimental bacterial infection in mice.
The EDso values were determined as described by W. E. Wick et al., Journal of Bacteriology, 81 [No. 2], 233-235 (1961).

SMILES: CCNC1CC2OC(OC3OC(CO)C(N)C(O)C3O)C(NC)C(O)C2OC1OC1C(N)CC(N)C(O)C1O (centres unmarked) [Test compound 4, 2′-N-ethylapramycin]
- MIC [1]: 32 µg/mL (≈ 56.4 µM)
- MIC [2]: 16 µg/mL (≈ 28.2 µM)
- MIC [3]: 8 µg/mL (≈ 14.1 µM)
- MIC [4]: 8 µg/mL (≈ 14.1 µM)
- MIC [5]: 8 µg/mL (≈ 14.1 µM)
- MIC [6]: 32 µg/mL (≈ 56.4 µM)
- MIC (Enterobacter cloacae EB5): 16 µg/mL (≈ 28.2 µM)
- MIC (Escherichia coli EC14): 8 µg/mL (≈ 14.1 µM)
- MIC (Escherichia coli N10): 8 µg/mL (≈ 14.1 µM)
- MIC (Escherichia coli TEM): 2 µg/mL (≈ 3.52 µM)
- MIC (Hemophilus influenzae 76): 16 µg/mL (≈ 28.2 µM)
- MIC [7]: 16 µg/mL (≈ 28.2 µM)
- MIC [8]: 8 µg/mL (≈ 14.1 µM)
- MIC [9]: 4 µg/mL (≈ 7.05 µM)
- MIC (Proteus inconstans PR33): 8 µg/mL (≈ 14.1 µM)
- MIC (Proteus morganii PR15): 32 µg/mL (≈ 56.4 µM)
- MIC (Proteus rettgeri C24): 8 µg/mL (≈ 14.1 µM)
- MIC (Proteus rettgeri PR7): 8 µg/mL (≈ 14.1 µM)
- MIC [10]: 32 µg/mL (≈ 56.4 µM)
- MIC [11]: 64 µg/mL (≈ 113 µM)
- MIC [12]: 64 µg/mL (≈ 113 µM)
- MIC [13]: 16 µg/mL (≈ 28.2 µM)
- MIC [14]: 8 µg/mL (≈ 14.1 µM)
- MIC (Serratia marcescens SE3): 16 µg/mL (≈ 28.2 µM)
- MIC (Serratia marcescens X99): 8 µg/mL (≈ 14.1 µM)
- MIC (Shigella sonnei N9): 8 µg/mL (≈ 14.1 µM)
- MIC [15]: 8 µg/mL (≈ 14.1 µM)
- MIC [16]: 8 µg/mL (≈ 14.1 µM)
- MIC [17]: 4 µg/mL (≈ 7.05 µM)
- MIC [18]: 16 µg/mL (≈ 28.2 µM)
- MIC [19]: 8 µg/mL (≈ 14.1 µM)
- MIC [20]: 2 µg/mL (≈ 3.52 µM)
- MIC [21]: > 128 µg/mL
- MIC [22]: 128 µg/mL (≈ 225 µM)
- MIC [23]: 16 µg/mL (≈ 28.2 µM)
- MIC [24]: 16 µg/mL (≈ 28.2 µM)
- ED50 ([25]; challenged with 68.1 LD50's): < 4.35 mg/kg

SMILES: CNC1C(OC2OC(CO)C(N)C(O)C2O)OC2CC(NC(=O)CN)C(OC3C(N)CC(N)C(O)C3O)OC2C1O (centres unmarked) [Test compound 3, 2′-N-Glycylapramycin]
- MIC [1]: 128 µg/mL (≈ 215 µM)
- MIC [2]: 64 µg/mL (≈ 107 µM)
- MIC [3]: 16 µg/mL (≈ 26.8 µM)
- MIC [4]: 16 µg/mL (≈ 26.8 µM)
- MIC [5]: 16 µg/mL (≈ 26.8 µM)
- MIC [6]: 32 µg/mL (≈ 53.6 µM)
- MIC (Enterobacter cloacae EB5): 32 µg/mL (≈ 53.6 µM)
- MIC (Escherichia coli EC14): 32 µg/mL (≈ 53.6 µM)
- MIC (Escherichia coli N10): 64 µg/mL (≈ 107 µM)
- MIC (Escherichia coli TEM): 8 µg/mL (≈ 13.4 µM)
- MIC (Hemophilus influenzae 76): 32 µg/mL (≈ 53.6 µM)
- MIC [7]: 16 µg/mL (≈ 26.8 µM)
- MIC [8]: 16 µg/mL (≈ 26.8 µM)
- MIC [9]: 8 µg/mL (≈ 13.4 µM)
- MIC (Proteus inconstans PR33): 32 µg/mL (≈ 53.6 µM)
- MIC (Proteus morganii PR15): 128 µg/mL (≈ 215 µM)
- MIC (Proteus rettgeri C24): 16 µg/mL (≈ 26.8 µM)
- MIC (Proteus rettgeri PR7): 32 µg/mL (≈ 53.6 µM)
- MIC [10]: 128 µg/mL (≈ 215 µM)
- MIC [11]: 64 µg/mL (≈ 107 µM)
- MIC [12]: 128 µg/mL (≈ 215 µM)
- MIC [13]: 32 µg/mL (≈ 53.6 µM)
- MIC [14]: 64 µg/mL (≈ 107 µM)
- MIC (Serratia marcescens SE3): 32 µg/mL (≈ 53.6 µM)
- MIC (Serratia marcescens X99): 16 µg/mL (≈ 26.8 µM)
- MIC (Shigella sonnei N9): 16 µg/mL (≈ 26.8 µM)
- MIC [15]: 32 µg/mL (≈ 53.6 µM)
- MIC [16]: 64 µg/mL (≈ 107 µM)
- MIC [17]: 16 µg/mL (≈ 26.8 µM)
- MIC [18]: 128 µg/mL (≈ 215 µM)
- MIC [19]: 16 µg/mL (≈ 26.8 µM)
- MIC [20]: 8 µg/mL (≈ 13.4 µM)
- MIC [21]: > 128 µg/mL
- MIC [22]: > 128 µg/mL
- MIC [23]: 128 µg/mL (≈ 215 µM)
- MIC [24]: 64 µg/mL (≈ 107 µM)
- ED50 ([25]; challenged with 1794 LD50's): 30 mg/kg
